Reference: patent publication US9388195B2, “Heterocyclic compound” (Takeda Pharmaceutical Company Limited, priority 2010, dated 2016)
Structures can show the parent of a compound that is named as a salt.

target: T1, Cdc7/Dbf4 complex (Homo sapiens, UniProt O00311); test: Measurement of Cdc7 kinase inhibitory activity (Transcreener ADP HTRF assay); type: biochemical; details: read-out: inhibitory rate (%) at 1 μM
T1 construct: Full-length Cdc7 co-expressed with full-length Dbf4; purchased Carna Biosciences (Kobe)
T1 sequence (O00311 whole entry): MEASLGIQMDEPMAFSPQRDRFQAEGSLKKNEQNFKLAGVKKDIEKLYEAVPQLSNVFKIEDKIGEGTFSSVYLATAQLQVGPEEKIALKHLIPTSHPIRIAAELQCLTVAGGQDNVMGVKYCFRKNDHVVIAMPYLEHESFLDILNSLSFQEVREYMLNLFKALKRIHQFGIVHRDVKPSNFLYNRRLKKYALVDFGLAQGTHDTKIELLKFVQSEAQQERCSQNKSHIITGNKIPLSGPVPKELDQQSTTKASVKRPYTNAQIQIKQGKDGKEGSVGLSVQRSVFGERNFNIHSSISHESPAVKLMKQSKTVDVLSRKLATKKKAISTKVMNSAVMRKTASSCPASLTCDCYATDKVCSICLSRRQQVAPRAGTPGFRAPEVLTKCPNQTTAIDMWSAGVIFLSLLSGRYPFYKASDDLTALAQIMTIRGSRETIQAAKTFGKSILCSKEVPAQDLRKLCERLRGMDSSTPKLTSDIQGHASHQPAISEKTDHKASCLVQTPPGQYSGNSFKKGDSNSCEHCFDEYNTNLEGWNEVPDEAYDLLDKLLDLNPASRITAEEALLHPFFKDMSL
T1 sequence (Q9UBU7 whole entry partner): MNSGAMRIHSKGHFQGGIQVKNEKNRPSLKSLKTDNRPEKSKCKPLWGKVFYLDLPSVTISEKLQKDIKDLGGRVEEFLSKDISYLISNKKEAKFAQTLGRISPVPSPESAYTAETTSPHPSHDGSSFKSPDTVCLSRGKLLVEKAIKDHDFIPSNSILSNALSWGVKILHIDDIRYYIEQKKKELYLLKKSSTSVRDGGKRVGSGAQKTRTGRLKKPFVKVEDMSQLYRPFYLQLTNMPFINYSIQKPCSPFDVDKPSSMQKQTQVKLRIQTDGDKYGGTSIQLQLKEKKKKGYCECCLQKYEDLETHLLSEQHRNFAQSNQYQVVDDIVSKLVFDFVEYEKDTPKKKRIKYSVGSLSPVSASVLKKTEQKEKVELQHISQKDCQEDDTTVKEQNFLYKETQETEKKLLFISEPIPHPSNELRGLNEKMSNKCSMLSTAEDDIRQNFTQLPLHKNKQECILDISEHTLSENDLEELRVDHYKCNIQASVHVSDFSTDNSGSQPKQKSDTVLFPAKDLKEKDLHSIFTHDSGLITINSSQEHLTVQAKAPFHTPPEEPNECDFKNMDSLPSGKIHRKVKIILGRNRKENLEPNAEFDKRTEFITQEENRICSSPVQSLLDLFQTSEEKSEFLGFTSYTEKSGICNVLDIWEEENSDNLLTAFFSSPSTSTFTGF
Method: Full-length Cdc7 co-expressed with full-length Dbf4 was purchased from Carna Biosciences (Kobe). The enzyme activity of Cdc7/Dbf4 complex was detected by homogeneous time-resolved fluorescence method Transcreener ADP assay (Cisbio Inc., MA, U.S.A.). […] Free ADP produced by ATP hydrolysis was detected by Eu^3+-Cryptate-labeled anti-ADP monoclonal antibody competitively with d2-labeled ADP, and the production amount thereof was measured. The obtained time-resolved fluorescence resonance energy transfer signal was measured by EnVision (Perkin Elmer Inc., MA, U.S.A.). The inhibitory rate (%) of the test compound to Cdc7 was calculated by the following formula. Inhibitory rate(%)=(1−(count of test compound-blank)[…](control-blank))×100
The count of the Cdc7/Dbf4 reaction mixture under compound-free conditions was taken as the control, and that under compound-free and Cdc7/Dbf4-free conditions was taken as the blank.

| Compound | inhibition at 1 µM [%] |
| --- | --- |
| Cc1[nH]ncc1-c1cc2nc(C34CC(CN3)C4)[nH]c(=O)c2s1 [Example 148, 2-(2-azabicyclo[2.1.1]hex-1-yl)-6-(5-methyl-1H-pyrazol-4-yl)thieno[3,2-d]pyrimidin-4 (3H)-one hydrochloride] | 102 |
| Cc1[nH]ncc1-c1cc2nc([C@@H]3CCC(C)(C)N3)[nH]c(=O)c2s1 [Example 76, 2-[(2S)-5,5-dimethylpyrrolidin-2-yl]-6-(5-methyl-1H-pyrazol-4-yl)thieno[3,2-d]pyrimidin-4 (3H)-one] | 106 |
| Cc1[nH]ncc1-c1cc2nc([C@H]3CCCCCN3)[nH]c(=O)c2s1 [Example 101, 2-[(2R)-azepan-2-yl]-6-(5-methyl-1H-pyrazol-4-yl)thieno[3,2-d]pyrimidin-4 (3H)-one] | 96.2 |
| Cc1[nH]ncc1-c1cc2nc([C@@H]3CCCN3C)[nH]c(=O)c2s1 [Example 88, 6-(5-methyl-1H-pyrazol-4-yl)-2-[(2S)-1-methylpyrrolidin-2-yl]thieno[3,2-d]pyrimidin-4 (3H)-one dihydrochloride] | 101 |
| Cc1[nH]ncc1-c1cc2nc(C3CCCCCN3)[nH]c(=O)c2s1 (centres unmarked) [Example 79, 2-(azepan-2-yl)-6-(5-methyl-1H-pyrazol-4-yl)thieno[3,2-d]pyrimidin-4 (3H)-one] | 93.3 |
| Cc1[nH]ncc1-c1cc2nc([C@@H]3CCCCCN3)[nH]c(=O)c2s1 [Example 102, 2-[(2S)-azepan-2-yl]-6-(5-methyl-1H-pyrazol-4-yl)thieno[3,2-d]pyrimidin-4 (3H)-one] | 95.9 |
| Cc1[nH]ncc1-c1cc2nc([C@@H]3C[C@H](C)CN3)[nH]c(=O)c2s1 [Example 92, 6-(5-methyl-1H-pyrazol-4-yl)-2-[(2S,4S)-4-methylpyrrolidin-2-yl]thieno[3,2-d]pyrimidin-4 (3H)-one dihydrochloride] | 108 |

same assay, conditions: read-out: inhibitory rate (%) at 1 μM, test compound 1 μM; Cdc7/Dbf4, 1.0 μm ATP, 10 μg/ml MCM2

| inhibition at 1 µM [%] | Compound |
| --- | --- |
| 103 | Cc1[nH]ncc1-c1cc2nc([C@H]3CCCCN3)[nH]c(=O)c2s1 [Example 85, 6-(5-methyl-1H-pyrazol-4-yl)-2-[(2R)-piperidin-2-yl]thieno[3,2-d]pyrimidin-4 (3H)-one dihydrochloride] |
| 108 | Cc1[nH]ncc1-c1cc2nc([C@H]3CC=CCN3)[nH]c(=O)c2s1 [Example 146, 6-(5-methyl-1H-pyrazol-4-yl)-2-[(2R)-1,2,3,6-tetrahydropyridin-2-yl]thieno[3,2-d]pyrimidin-4 (3H)-one dihydrochloride] |
| 91 | Cc1[nH]ncc1-c1cc2nc(C3CC=CCN3)[nH]c(=O)c2s1 (centres unmarked) [Example 136, 6-(5-methyl-1H-pyrazol-4-yl)-2-(1,2,3,6-tetrahydropyridin-2-yl)thieno[3,2-d]pyrimidin-4 (3H)-one dihydrochloride] |
| 103 | Cc1[nH]ncc1-c1cc2nc([C@@H]3CCCN3)[nH]c(=O)c2s1 [Example 11, 6-(5-methyl-1H-pyrazol-4-yl)-2-[(2S)-pyrrolidin-2-yl]thieno[3,2-d]pyrimidin-4 (3H)-one monotrifluoroacetate] |
| 105 | Cc1[nH]ncc1-c1cc2nc(C3(C)CCCN3)[nH]c(=O)c2s1 (centres unmarked) [Example 82, 6-(5-methyl-1H-pyrazol-4-yl)-2-(2-methylpyrrolidin-2-yl)thieno[3,2-d]pyrimidin-4 (3H)-one dihydrochloride] |
| 96.7 | Cc1[nH]ncc1-c1cc2nc([C@]3(C)CCCN3)[nH]c(=O)c2s1 [Example 103, 6-(5-methyl-1H-pyrazol-4-yl)-2-[(2S)-2-methylpyrrolidin-2-yl]thieno[3,2-d]pyrimidin-4 (3H)-one dihydrochloride] |

same assay, conditions: test compound 1 μM; Cdc7/Dbf4, 1.0 μm ATP, 10 μg/ml MCM2; 1 µM

| inhibitory rate (%) at 1 μM [%] | Compound |
| --- | --- |
| 104 | Cc1[nH]ncc1-c1cc2nc([C@@H]3CCCCN3)[nH]c(=O)c2s1 [Example 174, 6-(5-methyl-1H-pyrazol-4-yl)-2-[(2S)-piperidin-2-yl]thieno[3,2-d]pyrimidin-4 (3H)-one] |

same assay, conditions: test compound 1 μM; Cdc7/Dbf4, 1.0 μm ATP, 10 μg/ml MCM2; hydrochloride, 1 µM

| inhibitory rate (%) at 1 μM [%] | Compound |
| --- | --- |
| 102 | Cc1[nH]ncc1-c1cc2nc([C@@H]3CCCCN3)[nH]c(=O)c2s1 [Example 172, 6-(5-methyl-1H-pyrazol-4-yl)-2-[(2S)-piperidin-2-yl]thieno[3,2-d]pyrimidin-4 (3H)-one hydrochloride] |

same assay, conditions: test compound 1 μM; Cdc7/Dbf4, 1.0 μm ATP, 10 μg/ml MCM2; read-out: inhibitory rate (%) at 1 μM

| inhibition at 1 µM [%] | Compound |
| --- | --- |
| 105 | O=c1[nH]c(C23CC(CN2)C3)nc2cc(-c3cn[nH]c3C(F)(F)F)sc12 [Example 165, 2-(2-azabicyclo[2.1.1]hex-1-yl)-6-[5-(trifluoromethyl)-1H-pyrazol-4-yl]thieno[3,2-d]pyrimidin-4 (3H)-one dihydrochloride] |
| 86.2 | Cc1[nH]ncc1-c1cc2nc([C@@H]3C[C@@H]4CCCC[C@@H]4N3)[nH]c(=O)c2s1 [Example 78, 6-(5-methyl-1H-pyrazol-4-yl)-2-[(2S,3aS,7aS)-octahydro-1H-indol-2-yl]thieno[3,2-d]pyrimidin-4 (3H)-one] |
| 97 | Cc1[nH]ncc1-c1cc2nc(C3CCCC3N)[nH]c(=O)c2s1 (single isomer, unassigned) [Example 137, 2-(2-aminocyclopentyl)-6-(5-methyl-1H-pyrazol-4-yl)thieno[3,2-d]pyrimidin-4 (3H)-one dihydrochloride] |
| 102 | Cc1[nH]ncc1-c1cc2nc(C3COCCN3)[nH]c(=O)c2s1 (centres unmarked) [Example 72, 6-(5-methyl-1H-pyrazol-4-yl)-2-(morpholin-3-yl)thieno[3,2-d]pyrimidin-4 (3H)-one dihydrochloride] |
| 98.4 | Cc1[nH]ncc1-c1cc2nc([C@@H]3C[C@@H](F)CN3)[nH]c(=O)c2s1 [Example 23, 2-[(2S,4R)-4-fluoropyrrolidin-2-yl]-6-(5-methyl-1H-pyrazol-4-yl)thieno[3,2-d]pyrimidin-4 (3H)-one dihydrochloride] |
| 111 | Cc1[nH]ncc1-c1cc2nc(C(C)(C)N)[nH]c(=O)c2s1 [Example 135, 2-(1-amino-1-methylethyl)-6-(5-methyl-1H-pyrazol-4-yl)thieno[3,2-d]pyrimidin-4 (3H)-one dihydrochloride] |
| 122 | O=c1[nH]c(CN2CCCC2)nc2cc(-c3cn[nH]c3C(F)(F)F)sc12 [Example 143, 2-(pyrrolidin-1-ylmethyl)-6-[5-(trifluoromethyl)-1H-pyrazol-4-yl]thieno[3,2-d]pyrimidin-4 (3H)-one] |
| 107 | CNCc1nc2cc(-c3cn[nH]c3C)sc2c(=O)[nH]1 [Example 133, 2-[(methylamino)methyl]-6-(5-methyl-1H-pyrazol-4-yl)thieno[3,2-d]pyrimidin-4 (3H)-one dihydrochloride] |
| 97 | Cc1[nH]ncc1-c1cc2nc(-c3ccccc3Cl)[nH]c(=O)c2s1 [Example 1, 2-(2-chlorophenyl)-6-(5-methyl-1H-pyrazol-4-yl)thieno[3,2-d]pyrimidin-4 (3H)-one] |
| 102 | Cc1[nH]ncc1-c1cc2nc(CN3CC[C@H](F)C3)[nH]c(=O)c2s1 [Example 4, 2-{[(3S)-3-fluoropyrrolidin-1-yl]methyl}-6-(5-methyl-1H-pyrazol-4-yl)thieno[3,2-d]pyrimidin-4 (3H)-one] |
| 106 | Cc1[nH]ncc1-c1cc2nc(C3CCCC3N)[nH]c(=O)c2s1 (centres unmarked) [Example 139, 2-(2-aminocyclopentyl)-6-(5-methyl-1H-pyrazol-4-yl)thieno[3,2-d]pyrimidin-4 (3H)-one dihydrochloride] |
| 104 | CCc1[nH]ncc1-c1cc2nc([C@@H]3CCCCN3)[nH]c(=O)c2s1 [Example 162, 6-(5-ethyl-1H-pyrazol-4-yl)-2-[(2S)-piperidin-2-yl]thieno[3,2-d]pyrimidin-4 (3H)-one dihydrochloride] |

| Compound | inhibition at 1 µM [%] |
| --- | --- |
| Cc1[nH]ncc1-c1cc2nc([C@H]3NC[C@H]4C[C@H]43)[nH]c(=O)c2s1 [Example 113, 2-[(1R,2S,5S)-3-azabicyclo[3.1.0]hex-2-yl]-6-(5-methyl-1H-pyrazol-4-yl)thieno[3,2-d]pyrimidin-4 (3H)-one dihydrochloride] | 124 |
| Cc1[nH]ncc1-c1cc2nc(C3C[C@@H]4CCC[C@@H]4N3)[nH]c(=O)c2s1 (stereo partly drawn) [Example 123, 6-(5-methyl-1H-pyrazol-4-yl)-2-[(3aS,6aS)-octahydrocyclopenta[b]pyrrol-2-yl]thieno[3,2-d]pyrimidin-4 (3H)-one] | 97 |
| Cc1[nH]ncc1-c1cc2nc([C@H]3NC[C@@H]4C[C@@H]43)[nH]c(=O)c2s1 (relative stereo) [Example 110, 2-[(1S*,2S*,5R*)-3-azabicyclo[3.1.0]hex-2-yl]-6-(5-methyl-1H-pyrazol-4-yl)thieno[3,2-d]pyrimidin-4 (3H)-one dihydrochloride] | 100 |
| Cc1[nH]ncc1-c1cc2nc([C@]34C[C@H]3CCN4)[nH]c(=O)c2s1 [Example 157, 2-[(1S,5R)-2-azabicyclo[3.1.0]hex-1-yl]-6-(5-methyl-1H-pyrazol-4-yl)thieno[3,2-d]pyrimidin-4 (3H)-one dihydrochloride] | 92 |
| Cc1[nH]ncc1-c1cc2nc([C@H]3NC[C@H]4C[C@H]43)[nH]c(=O)c2s1 (relative stereo) [Example 87, 2-[(1R*,2S*,5S*)-3-azabicyclo[3.1.0]hex-2-yl]-6-(5-methyl-1H-pyrazol-4-yl)thieno[3,2-d]pyrimidin-4 (3H)-one dihydrochloride] | 107 |
